Reference: ChEMBL document CHEMBL1268814, “Synthesis and biological evaluation of bivalent ligands for the cannabinoid 1 receptor” (J Med Chem, 2010)

Each molecule was assayed against T1, Cannabinoid receptor 1 (Homo sapiens, UniProt P21554) (assay: not given). Settings: CHO.
T1 sequence (P21554 whole entry): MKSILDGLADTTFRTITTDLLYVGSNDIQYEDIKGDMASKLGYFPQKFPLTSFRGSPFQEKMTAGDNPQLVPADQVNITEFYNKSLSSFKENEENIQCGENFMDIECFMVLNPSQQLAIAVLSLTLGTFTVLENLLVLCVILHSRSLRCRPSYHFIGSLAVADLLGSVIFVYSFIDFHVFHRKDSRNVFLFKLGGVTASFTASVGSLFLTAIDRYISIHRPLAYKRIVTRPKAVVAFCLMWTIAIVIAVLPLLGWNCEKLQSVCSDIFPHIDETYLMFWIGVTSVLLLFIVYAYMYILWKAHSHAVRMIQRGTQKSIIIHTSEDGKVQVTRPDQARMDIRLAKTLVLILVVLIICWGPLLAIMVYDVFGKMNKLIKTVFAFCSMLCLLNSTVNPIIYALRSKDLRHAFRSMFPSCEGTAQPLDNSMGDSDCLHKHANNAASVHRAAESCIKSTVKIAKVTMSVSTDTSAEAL
`Cc1c(C(=O)NCCCCCNCCCCCNC(=O)c2nn(-c3ccc(Cl)cc3Cl)c(-c3ccc(Cl)cc3)c2C)nn(-c2ccc(Cl)cc2Cl)c1-c1ccc(Cl)cc1` was tested, and the Ke was 476 nM. For `Cc1c(C(=O)NCCNCCNC(=O)c2nn(-c3ccc(Cl)cc3Cl)c(-c3ccc(Cl)cc3)c2C)nn(-c2ccc(Cl)cc2Cl)c1-c1ccc(Cl)cc1`, the Ke was 2700 nM. With `Cc1c(C(=O)NCCCCCNCCCCCN)nn(-c2ccc(Cl)cc2Cl)c1-c1ccc(Cl)cc1` the Ke was 5400 nM. `Cc1c(C(=O)NCCCCCCCCCCCNCCCCCCCCCCCNC(=O)c2nn(-c3ccc(Cl)cc3Cl)c(-c3ccc(Cl)cc3)c2C)nn(-c2ccc(Cl)cc2Cl)c1-c1ccc(Cl)cc1` was tested, and the Ke was > 10000 nM. Work on `Cc1c(C(=O)NCCCCCCCCCN(C)CCCCCCCCCN)nn(-c2ccc(Cl)cc2Cl)c1-c1ccc(Cl)cc1` yielded a Ke of 141 nM.

What follows are molecules tested against T1, Cannabinoid receptor 1 (assay: Antagonist activity at human brain CB1 receptor assessed as inhibition for [35S]GTPgammaS binding). Settings: not given.
Type: functional
Molecule `Cc1c(C(=O)NCCCCCNCCCCCNC(=O)c2nn(-c3ccc(Cl)cc3Cl)c(-c3ccc(Cl)cc3)c2C)nn(-c2ccc(Cl)cc2Cl)c1-c1ccc(Cl)cc1` has an EC50 of 33 nM. For `Cc1c(C(=O)NCCNCCNC(=O)c2nn(-c3ccc(Cl)cc3Cl)c(-c3ccc(Cl)cc3)c2C)nn(-c2ccc(Cl)cc2Cl)c1-c1ccc(Cl)cc1`, the EC50 was 237 nM. `Cc1c(C(=O)NCCCCCCCCCCCNCCCCCCCCCCCNC(=O)c2nn(-c3ccc(Cl)cc3Cl)c(-c3ccc(Cl)cc3)c2C)nn(-c2ccc(Cl)cc2Cl)c1-c1ccc(Cl)cc1` was tested, and the EC50 was > 25000 nM.

What follows are molecules tested against T1, Cannabinoid receptor 1 (assay: biochemical). Settings: not given.
Type: cell-based, HEK293
`Cc1c(C(=O)NCCCCCNCCCCCNC(=O)c2nn(-c3ccc(Cl)cc3Cl)c(-c3ccc(Cl)cc3)c2C)nn(-c2ccc(Cl)cc2Cl)c1-c1ccc(Cl)cc1` was tested, and the Ki was 30.4 nM. `Cc1c(C(=O)NCCNCCNC(=O)c2nn(-c3ccc(Cl)cc3Cl)c(-c3ccc(Cl)cc3)c2C)nn(-c2ccc(Cl)cc2Cl)c1-c1ccc(Cl)cc1` showed a Ki of 94 nM. With `Cc1c(C(=O)NCCCCCNCCCCCN)nn(-c2ccc(Cl)cc2Cl)c1-c1ccc(Cl)cc1` the Ki was 230 nM. For `Cc1c(C(=O)NCCCCCCCCCCCNCCCCCCCCCCCNC(=O)c2nn(-c3ccc(Cl)cc3Cl)c(-c3ccc(Cl)cc3)c2C)nn(-c2ccc(Cl)cc2Cl)c1-c1ccc(Cl)cc1`, the Ki was 37 nM. Work on `Cc1c(C(=O)NCCCCCCCCCN(C)CCCCCCCCCN)nn(-c2ccc(Cl)cc2Cl)c1-c1ccc(Cl)cc1` yielded a Ki of 6.12 nM.

What follows are molecules tested against Cannabinoid receptor 1 (Rattus norvegicus) (UniProt P20272) (assay: Antagonist activity at rat brain CB1 receptor assessed as inhibition of [35S]GTPgammaS binding at 10000 nM). Settings: not given.
Sequence of Cannabinoid receptor 1 (Rattus norvegicus) (P20272 whole entry): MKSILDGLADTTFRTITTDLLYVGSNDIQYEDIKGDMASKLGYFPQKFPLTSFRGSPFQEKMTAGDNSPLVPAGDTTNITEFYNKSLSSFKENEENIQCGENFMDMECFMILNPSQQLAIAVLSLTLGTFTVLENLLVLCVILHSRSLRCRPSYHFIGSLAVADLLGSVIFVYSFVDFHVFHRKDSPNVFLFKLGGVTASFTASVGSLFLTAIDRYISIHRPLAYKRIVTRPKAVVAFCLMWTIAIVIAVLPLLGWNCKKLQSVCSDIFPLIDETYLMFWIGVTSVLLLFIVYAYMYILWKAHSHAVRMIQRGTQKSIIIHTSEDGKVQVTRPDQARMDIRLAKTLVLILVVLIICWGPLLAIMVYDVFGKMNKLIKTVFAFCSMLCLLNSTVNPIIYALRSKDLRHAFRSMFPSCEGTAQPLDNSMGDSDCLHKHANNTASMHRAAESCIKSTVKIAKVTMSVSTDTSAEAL
Type: functional
For `Cc1c(C(=O)NCCCCCNCCCCCNC(=O)c2nn(-c3ccc(Cl)cc3Cl)c(-c3ccc(Cl)cc3)c2C)nn(-c2ccc(Cl)cc2Cl)c1-c1ccc(Cl)cc1`, the Emax was -29.6%. `Cc1c(C(=O)NCCNCCNC(=O)c2nn(-c3ccc(Cl)cc3Cl)c(-c3ccc(Cl)cc3)c2C)nn(-c2ccc(Cl)cc2Cl)c1-c1ccc(Cl)cc1` showed an Emax of -35.9%. In the case of `Cc1c(C(=O)NCCCCCNCCCCCN)nn(-c2ccc(Cl)cc2Cl)c1-c1ccc(Cl)cc1`, the Emax is reported as -40.7%. With `Cc1c(C(=O)NCCCCCCCCCCCNCCCCCCCCCCCNC(=O)c2nn(-c3ccc(Cl)cc3Cl)c(-c3ccc(Cl)cc3)c2C)nn(-c2ccc(Cl)cc2Cl)c1-c1ccc(Cl)cc1` the Emax was -12.2%. For `Cc1c(C(=O)NCCCCCCCCCN(C)CCCCCCCCCN)nn(-c2ccc(Cl)cc2Cl)c1-c1ccc(Cl)cc1`, the Emax was -67.9%.

What follows are molecules tested against T1, Cannabinoid receptor 1 (assay: Antagonist activity at human brain CB1 receptor assessed as inhibition for [35S]GTPgammaS binding at 10000 nM). Settings: not given.
Type: functional
`Cc1c(C(=O)NCCCCCNCCCCCNC(=O)c2nn(-c3ccc(Cl)cc3Cl)c(-c3ccc(Cl)cc3)c2C)nn(-c2ccc(Cl)cc2Cl)c1-c1ccc(Cl)cc1` gave an Emax of 8.5%. Work on `Cc1c(C(=O)NCCNCCNC(=O)c2nn(-c3ccc(Cl)cc3Cl)c(-c3ccc(Cl)cc3)c2C)nn(-c2ccc(Cl)cc2Cl)c1-c1ccc(Cl)cc1` yielded an Emax of -25.5%.

The molecules below were run against Cannabinoid receptor 1 (Rattus norvegicus, UniProt P20272) (assay: Antagonist activity at rat brain CB1 receptor assessed as inhibition of [35S]GTPgammaS binding). Settings: not given.
Sequence of Cannabinoid receptor 1 (Rattus norvegicus, UniProt P20272) (P20272 whole entry): as the sequence (P20272 whole entry) above
Type: functional
With `Cc1c(C(=O)NCCCCCNCCCCCNC(=O)c2nn(-c3ccc(Cl)cc3Cl)c(-c3ccc(Cl)cc3)c2C)nn(-c2ccc(Cl)cc2Cl)c1-c1ccc(Cl)cc1` the EC50 was > 10 µM. For `Cc1c(C(=O)NCCNCCNC(=O)c2nn(-c3ccc(Cl)cc3Cl)c(-c3ccc(Cl)cc3)c2C)nn(-c2ccc(Cl)cc2Cl)c1-c1ccc(Cl)cc1`, the EC50 was > 10 µM. For `Cc1c(C(=O)NCCCCCNCCCCCN)nn(-c2ccc(Cl)cc2Cl)c1-c1ccc(Cl)cc1`, the EC50 was 2.22 µM. `Cc1c(C(=O)NCCCCCCCCCCCNCCCCCCCCCCCNC(=O)c2nn(-c3ccc(Cl)cc3Cl)c(-c3ccc(Cl)cc3)c2C)nn(-c2ccc(Cl)cc2Cl)c1-c1ccc(Cl)cc1` was tested, and the EC50 was > 10 µM. `Cc1c(C(=O)NCCCCCCCCCN(C)CCCCCCCCCN)nn(-c2ccc(Cl)cc2Cl)c1-c1ccc(Cl)cc1` was tested, and the EC50 was 3.4 µM.

These molecules were tested against Cannabinoid receptor 2 (Homo sapiens, UniProt P34972) (assay: Displacement of [3H]CP55940 from human CB2 receptor expressed in CHOK1 cells). Settings: not given.
Sequence of Cannabinoid receptor 2 (P34972 whole entry): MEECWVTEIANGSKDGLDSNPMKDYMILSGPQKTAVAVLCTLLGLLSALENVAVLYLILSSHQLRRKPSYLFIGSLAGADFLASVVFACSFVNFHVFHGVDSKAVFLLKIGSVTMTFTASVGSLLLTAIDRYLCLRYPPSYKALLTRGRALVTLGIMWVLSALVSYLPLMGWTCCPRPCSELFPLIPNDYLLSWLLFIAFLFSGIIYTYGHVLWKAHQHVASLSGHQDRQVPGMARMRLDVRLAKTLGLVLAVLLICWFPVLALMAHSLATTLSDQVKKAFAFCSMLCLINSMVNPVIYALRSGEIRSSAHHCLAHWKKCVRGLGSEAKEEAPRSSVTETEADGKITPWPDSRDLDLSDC
Type: cell-based, CHO-K1
`Cc1c(C(=O)NCCCCCNCCCCCNC(=O)c2nn(-c3ccc(Cl)cc3Cl)c(-c3ccc(Cl)cc3)c2C)nn(-c2ccc(Cl)cc2Cl)c1-c1ccc(Cl)cc1` gave a Ki of 451 nM. `Cc1c(C(=O)NCCNCCNC(=O)c2nn(-c3ccc(Cl)cc3Cl)c(-c3ccc(Cl)cc3)c2C)nn(-c2ccc(Cl)cc2Cl)c1-c1ccc(Cl)cc1` gave a Ki of 1280 nM. In the case of `Cc1c(C(=O)NCCCCCNCCCCCN)nn(-c2ccc(Cl)cc2Cl)c1-c1ccc(Cl)cc1`, the Ki is reported as > 2500 nM. For `Cc1c(C(=O)NCCCCCCCCCCCNCCCCCCCCCCCNC(=O)c2nn(-c3ccc(Cl)cc3Cl)c(-c3ccc(Cl)cc3)c2C)nn(-c2ccc(Cl)cc2Cl)c1-c1ccc(Cl)cc1`, the Ki was > 2500 nM. For `Cc1c(C(=O)NCCCCCCCCCN(C)CCCCCCCCCN)nn(-c2ccc(Cl)cc2Cl)c1-c1ccc(Cl)cc1`, the Ki was 265 nM.

These molecules were tested against T1, Cannabinoid receptor 1 (assay: Displacement of [3H]CP55940 from human CB1 receptor expressed in HEK293 cells). Settings: not given.
Type: cell-based
`Cc1c(C(=O)NCCCCCNCCCCCNC(=O)c2nn(-c3ccc(Cl)cc3Cl)c(-c3ccc(Cl)cc3)c2C)nn(-c2ccc(Cl)cc2Cl)c1-c1ccc(Cl)cc1` showed a Ki of 68.1 nM. Work on `Cc1c(C(=O)NCCNCCNC(=O)c2nn(-c3ccc(Cl)cc3Cl)c(-c3ccc(Cl)cc3)c2C)nn(-c2ccc(Cl)cc2Cl)c1-c1ccc(Cl)cc1` yielded a Ki of 229 nM. Work on `Cc1c(C(=O)NCCCCCNCCCCCN)nn(-c2ccc(Cl)cc2Cl)c1-c1ccc(Cl)cc1` yielded a Ki of 349 nM. With `Cc1c(C(=O)NCCCCCCCCCCCNCCCCCCCCCCCNC(=O)c2nn(-c3ccc(Cl)cc3Cl)c(-c3ccc(Cl)cc3)c2C)nn(-c2ccc(Cl)cc2Cl)c1-c1ccc(Cl)cc1` the Ki was 99.3 nM. Molecule `Cc1c(C(=O)NCCCCCCCCCN(C)CCCCCCCCCN)nn(-c2ccc(Cl)cc2Cl)c1-c1ccc(Cl)cc1` has a Ki of 10 nM.

What follows are molecules tested against T1, Cannabinoid receptor 1 (assay: Antagonist activity at human brain CB1 receptor by calcium mobilization assay). Settings: read-out: pA2 (converted).
Type: functional
In the case of `Cc1c(C(=O)NCCCCCNCCCCCNC(=O)c2nn(-c3ccc(Cl)cc3Cl)c(-c3ccc(Cl)cc3)c2C)nn(-c2ccc(Cl)cc2Cl)c1-c1ccc(Cl)cc1`, the Kb is reported as 29.5 nM. `Cc1c(C(=O)NCCNCCNC(=O)c2nn(-c3ccc(Cl)cc3Cl)c(-c3ccc(Cl)cc3)c2C)nn(-c2ccc(Cl)cc2Cl)c1-c1ccc(Cl)cc1` was tested, and the Kb was 83.2 nM. Work on `Cc1c(C(=O)NCCCCCNCCCCCN)nn(-c2ccc(Cl)cc2Cl)c1-c1ccc(Cl)cc1` yielded a Kb of 759 nM. `Cc1c(C(=O)NCCCCCCCCCCCNCCCCCCCCCCCNC(=O)c2nn(-c3ccc(Cl)cc3Cl)c(-c3ccc(Cl)cc3)c2C)nn(-c2ccc(Cl)cc2Cl)c1-c1ccc(Cl)cc1` gave a Kb of 27.5 nM. `Cc1c(C(=O)NCCCCCCCCCN(C)CCCCCCCCCN)nn(-c2ccc(Cl)cc2Cl)c1-c1ccc(Cl)cc1` was tested, and the Kb was 4.57 nM.
